Source: US20080176882A1, “SALTS OF 3-(3-AMINO-2-(R)-HYDROXY-PROPYL)-1-(4-FLUORO-PHENYL)-8-(8-METHYL-NAPHTHALEN-1-YLMETHYL)-1,3,8-TRIAZA-SPIRO[4.5]DECAN-4-ONE” (priority 2006, published 2008)
Where a name gives a salt, the structure may show the parent alone.

Assay: DVS (Differential Vapor Sorption) measurements of hygroscopicity
Type: physicochemical
Conditions: salt forms of the compound of formula (Is)
Description: In an embodiment, the present invention is directed to a hydrochloride salt of the compound of formula (Is). In another embodiment of the present invention, the hydrochloride salt of the compound of formula (Is) is mono-hydrochloride or di-hydrochloride salt of the compound of formula (Is). In another embodiment of the present invention, the mono-hydrochloride and di-hydrochloride salts of the compound of formula (Is) are crystalline. DVS measurements completed on the mono-hydrochloride and di-hydrochloride salts of the compound of formula (Is) indicate that both of these salt forms are hygroscopic.

**Q.** Which “hygroscopicity by DVS measurements” value does the source give for `Cc1cccc2cccc(CN3CCC4(CC3)C(=O)N(C[C@H](O)CN)CN4c3ccc(F)cc3)c12` [mono-hydrochloride, 3-(3-amino-2-(R)-hydroxy-propyl)-1-(4-fluoro-phenyl)-8-(8-methyl-naphthalen-1-ylmethyl)-1,3,8-triaza-spiro[4.5]decan-4-one] here?
**A.** Its value is “hygroscopic”.
